Reference: US20130323361A1, “NUTRITIONAL COMPOSITIONS INCLUDING EXOGENOUS VITAMIN K2” (NESTEC S.A., priority 2009, published 2013)

Legend:
Format in all cases: in vivo, Male Sprague-Dawley rats
[1] = tested on: 4E-BP 1 (Thr37); experiment: mTOR signaling: 4E-BP1 phosphorylation in gastrocnemius muscle of LPS-challenged rats; conditions: 25 or 50 microgram oral daily over 7 days, LPS 0.5 mg/kg IP, compared to LPS treatment
Procedure: (§1) Male Sprague-Dawley rats (175 g) are kept on a 12-h light:dark cycle with food (Harlan-Teklad Rodent Chow, Madison, Wis.) and water provided freely. Animals are administered daily doses of vitamin K2 (MK-7) or saline (control) via oral gavage over 7 days. Stock solutions of vitamin K2 are prepared containing 3.5 g/L HCO-60 and 1 g/L of […] in buffer A (0.15 M NaCl, 0.05 M Tris-HCl, pH 7.5). The K2 is dissolved by sonication during five pulses of 5 set with an amplitude of 6 pm. Solutions thus obtained are clear, homogeneous, and stable. […]
(§2) Analysis of mTOR Signaling to elFs—Gastrocnemius muscles are weighed and homogenized in 7 volumes of buffer containing 20 mM HEPES (pH 7.4), 100 mM potassium chloride, 0.2 mM EDTA, 2 mM EGTA, 50 mM sodium fluoride, 50 mM glycerophosphate, 0.1 mM phenylmethylsulfonyl fluoride, 1 mM benzamidine, 1 mM dithiothreitol (DTT), and 0.5 mM sodium vanadate. […] Samples are analyzed for the phosphorylation status of 4E-BP 1 (Thr37) and ribosomal protein S6 (Ser 235/236), the anti-phosphospecific antibodies were obtained from Cell Signaling Technology, Beverly, Mass. Additionally, samples are analyzed for phosphorylated IKKα/β (Ser176/180; Cell Signaling Technology) and phosphorylated p65 (Ser536; Cell Signaling Technology).

[2] = tested on: ribosomal protein S6 (Ser 235/236); experiment: mTOR signaling: ribosomal protein S6 phosphorylation in gastrocnemius muscle of LPS-challenged rats; conditions: 25 or 50 microgram oral daily over 7 days, LPS 0.5 mg/kg IP, compared to LPS treatment
Procedure: as §1, §2

[3] = tested on: total mixed muscle protein; experiment: Measurement of protein synthesis (fractional rate Ks, radioactive phenylalanine incorporation) in LPS-challenged rats; conditions: 25 or 50 microgram oral daily over 7 days, LPS 0.5 mg/kg IP, under conditions of inflammatory sepsis, compared to LPS treatment
Procedure: as §1, with “stable. Shortly before vitamin K administration the stock solutions are diluted five times with buffer A, leading to a final HCO-60 concentration of 0.7 g/L. Further dilutions (as required) are made with 0.7 g/L HCO-60 in buffer A. Each dilution step is followed by sonication as described above. In all cases vitamin K2 is administered to the rats in 0.5 mL samples, with either 25 or 50 microgram oral doses.” for “stable.”
Measurement of Protein Synthesis—The fractional rate of synthesis (Ks) is estimated from the rate of incorporation of radioactive phenylalanine into total mixed muscle protein using the specific radioactivity of serum phenylalanine as representative of the precursor pool. […]

[4] = tested on: plasma TNF-a; experiment: Plasma TNF-a in LPS-challenged rats; conditions: 25 or 50 microgram oral daily over 7 days, LPS 0.5 mg/kg IP 2 hours after last dose, sacrifice four hours later, compared to LPS treated animals
Procedure: Male Sprague-Dawley rats (175 g) are kept on a 12-h light:dark cycle with food (Harlan-Teklad Rodent Chow, Madison, Wis.) and water provided freely. Animals are administered daily doses of vitamin K2 (MK-7) or saline (control) via oral gavage over 7 days. Stock solutions of vitamin K2 are prepared containing 3.5 g/L HCO-60 and 1 g/L of […] in buffer A (0.15 M NaCl, 0.05 M Tris-HCl, pH 7.5). The K2 is dissolved by sonication during five pulses of 5 set with an amplitude of 6 pm. Solutions thus obtained are clear, homogeneous, and stable. Shortly before vitamin K administration the stock solutions are diluted five times with buffer A, leading to a final HCO-60 concentration of 0.7 g/L. Further dilutions (as required) are made with 0.7 g/L HCO-60 in buffer A. Each dilution step is followed by sonication as described above. In all cases vitamin K2 is administered to the rats in 0.5 mL samples, with either 25 or 50 microgram oral doses.
On the final day (Day 7), rodents are administered vitamin K2 and 2 hours later were given an IP dose of LPS (Escherichia coli serotype 0111:B4, L2630, Sigma) intraperitoneally (0.5 mg/kg of body weight). Four hours later animals are sacrificed.

[5] = tested on: IKKα/β (Ser176/180); experiment: Immunoblot of phosphorylated IKKα/β in gastrocnemius muscle of LPS-challenged rats; conditions: 25 or 50 microgram oral daily over 7 days, LPS 0.5 mg/kg IP, compared to LPS treatment
Procedure: as §1, §2

[6] = tested on: NFαB p65; experiment: Immunoblot of phosphorylated p65 in gastrocnemius muscle of LPS-challenged rats; conditions: 25 or 50 microgram oral daily over 7 days, LPS 0.5 mg/kg IP, compared to LPS treatment
Procedure: as §1, §2

`CC(C)=CCC/C(C)=C/CC/C(C)=C/CC/C(C)=C/CC/C(C)=C/CC/C(C)=C/CC/C(C)=C/CC1=C(C)C(=O)c2ccccc2C1=O` [K2, vitamin K2 (MK-7)] was tested, and the “decrease in 4E-BPI(Thr-37) phosphorylation” value [1] was “abrogates the decrease”, the “decrease in ribosomal protein S6 phosphorylation” value [2] was “abrogates the decrease” and the “fractional rate of mixed muscle protein synthesis” value [3] was “greater preservation”. For the same compound, the “rise of plasma TNF-a” value [4] was “significant decrease in the rise”, the “drop in phosphorlyation for IKKα/β” value [5] was “significant blunting of the drop in phosphorlyation” and the “NFαB p65 induction” value [6] was “significant blunting”.
